Data set [1] deals with iPSC-CMs. The data set is described as follows: Cardiotoxicity test: spontaneous calcium oscillations (FLIPR, EarlyTox dye). Particulars: for EC50: Homo sapiens, iPSC-CM, read-out: EC50 (beating rate, calcium oscillations); for effect on beating rate: iPSC-CMs, concentration-dependent. The protocol: Spontaneous calcium oscillations in iPSC-CMs were measured using the FLIPR system in the absence or presence of test compounds. […] This approach allowed the evaluation of proarrhythmic effects of drug candidates based on calcium dynamics occurring within the iPSC-CMs.
Figure 4 Utilization of hPSC-CMs as a platform for high-throughput testing of the cardiotoxicity and effectiveness of drugs. Spontaneous calcium oscillations in iPSC-CMs were measured using the FLIPR system in the absence or presence of test compounds. (a,b) Cardiotoxicity test. […] (b) Testing of the compounds known for their adverse effects in humans. […] (c,d) Efficacy test. (c) iPSC-CMs (c1) and ESC-CMs (c2) were treated with 200 nM ATX-II, a late inward sodium current inducer, which produces atrial arrhythmias mimicking the LQT3 phenotype, followed by exposure to a test compound. […] Error bars, mean ± SEM (N = 3). Asterisks, *—statistically significant differences (Student’s t-test; p < 0.05).
Spontaneous calcium transients in contracting CMs were monitored using the FLIPR Tetra® High Throughput Cellular Screening System (Molecular Devices). hPSC-CMs were plated on the Matrigel-coated wells (8 × 10^4 cells per well) of a 96-well plate. Confluency was monitored after 2 days, and the strong synchronous contractions of cells were confirmed prior to the cardiac calcium oscillation assay. Experiments were conducted after 7–10 days of cell culture. The EarlyTox^TM Cardiotoxicity Kit (Molecular Devices) was used; a calcium-sensitive fluorescent dye was added to the plate according to the manufacturer’s instructions and incubated for 2 h at 37 °C. […] Calcium oscillations were measured at 20, 40, and 60 min after treatment. The acquired data were analyzed for beat frequency and peak width at 10% amplitude using ScreenWorks Peak Pro software version 2.0 (Molecular Devices).

The test system of data set [2] is iPSC-CMs. The data set is described as follows: Efficacy test: ATX-II-induced LQT3 phenotype, calcium oscillations in iPSC-CMs. The settings on record: for average peak width after ATX-II, reversal by test compound: iPSC-CMs pretreated with 200 nM ATX-II. The data set is classed as cell-based, human. An excerpt: (§1) (a,b) Cardiotoxicity test. […] (c,d) Efficacy test. […] Error bars, mean ± SEM (N = 3).
(§2) For the efficacy test (Figure 4c), iPSC-CMs and ESC-CMs were generated as previously mentioned and used to screen effective compounds for reversing arrhythmia phenotype.

In data set [3] the test system is ESC-CMs. Briefly: Efficacy test: ATX-II-induced LQT3 phenotype, calcium oscillations in ESC-CMs. The data set is classed as cell-based, human. The settings on record: for average peak width after ATX-II, reversal by test compound: ESC-CMs pretreated with 200 nM ATX-II.
From the text: as §1, §2

In data set [4] the test system is hPSCs. The data set is described as follows: Optimization of CHIR99021 concentration for hPSC-CM generation (morphology, cTnT FACS). The data set is classed as cell-based, human. Particulars: tested 0, 6, 9, 12 μM; morphology and cTnT expression on D10. From the text: To optimize the culture conditions for CM generation from hPSCs (iPSCs and ESCs), cells were propagated on Matrigel-coated culture plates with maintenance medium, as described in the Section 4. Subsequently, hPSCs underwent differentiation for 10 days, followed by maturation for another 10 days or longer if needed (Figure 1a). For the initial induction of mesodermal differentiation, CHIR99021, a GSK3 inhibitor and Wnt activator, was used. On the first day of hPSC cm generation, hPSCs were treated with CHIR99021 at various concentrations (0, 6, 9, and 12 μM) (Figure 1b). The optimal concentration of CHIR99021 for the efficient generation of hPSC-CMs was determined to be 9 μM based on their morphology and cTnT expression (Figure 1b). For further differentiation into cardiac progenitor cells, Wnt-C59, a small molecule that inhibits Wnt palmitoylation, was added to the differentiation medium from D2 to D4. For late differentiation into contracting CMs from D6 to D10, insulin was added. Contracting CMs were observed between D9 and D11 (Supplementary Figure S1). During differentiation over 10 days, there were changes in the expression levels of CM-related genes (Figure 1c). […] Moreover, GATA4, NKX2.5, TBX5, and ISL1, transcription factors that play key roles in cardiac development, were highly expressed on D10 compared with D0 or D5, indicating the induction of cardiac lineage cells. […]

Experimental findings from PMC11277421, “Advancing Cardiovascular Drug Screening Using Human Pluripotent Stem Cell-Derived Cardiomyocytes” (International Journal of Molecular Sciences, 2024) are described below.

As a reminder, the EC50 is the concentration giving half of the maximal effect.

“Also recorded” adds a separate entry of the source.

Take `COc1ccc(CCN(C)CCCC(C#N)(c2ccc(OC)c(OC)c2)C(C)C)cc1OC` (centres unmarked) [verapamil]: in data set [1], the concentration for a half-maximal effect (EC50) was found to be 0.522 µM and the “effect on beating rate” value was “increased the beating rate”.

Take `CCCN(CCc1cccs1)[C@H]1CCc2c(O)cccc2C1` [rotigotine]: the “average peak width after ATX-II, reversal by test compound” value in data set [2] and in data set [3] was “restored to the level of untreated control cells; also recorded: significantly reverted the average peak width to the level of untreated control cells” in each case.

Take `CN(CCOc1ccc(NS(C)(=O)=O)cc1)CCc1ccc(NS(C)(=O)=O)cc1` [dofetilide]: in data set [1], the EC50 came out at 0.018 µM and the “effect on beating rate” value is on record as “decrease in the beating rate”.

Take `CCCN1CCCC[C@H]1C(=O)Nc1c(C)cccc1C` [ropivacaine]: the “average peak width after ATX-II, reversal by test compound” value in data set [2] and in data set [3] was “restored to the level of untreated control cells; also recorded: significantly reverted the average peak width to the level of untreated control cells” throughout.

For `O=C(NCC1CCCCN1)c1cc(OCC(F)(F)F)ccc1OCC(F)(F)F` (centres unmarked) [flecainide], in data set [1], the concentration giving a half-maximal response (EC50) came out at 17.5 µM and the “effect on beating rate” value is listed as “inhibited the beating rates”.

As to `CC(C)c1nc(CN(C)C(=O)N[C@H](C(=O)N[C@@H](Cc2ccccc2)C[C@H](O)[C@H](Cc2ccccc2)NC(=O)OCc2cncs2)C(C)C)cs1` [ritonavir], in data set [1], the EC50 was 6.09 µM and the “effect on beating rate” value is recorded as “inhibited the beating rates”.

As to `Cc1c[nH]c(-c2cnc(NCCNc3ccc(C#N)cn3)nc2-c2ccc(Cl)cc2Cl)n1` [CHIR99021], in data set [4], the “optimal concentration for efficient generation of hPSC-CMs” value was 9 µM.

As to “ATX-II: late inward sodium current inducer known to produce atrial arrhythmias, mimicking LQT3”, the “average peak width (effect of ATX-II itself)” value in data set [2] (200 nM, iPSC-CMs) is “higher average peak widths”; in data set [3] (200 nM, ESC-CMs), “higher average peak widths”.

Consider `COc1ccc([C@@H]2Sc3ccccc3N(CCN(C)C)C(=O)[C@@H]2OC(C)=O)cc1` [diltiazem], for which, in data set [1], the concentration for a half-maximal effect (EC50) was determined as 5.97 µM and the “effect on beating rate” value is “increased the beating rate”.
